Assay results taken from patent publication US8349366B2, “Immediate release pharmaceutical granule compositions and a continuous process for making them” (Universiteit Gent, priority 2002, dated 2013).

Assays:
[1] = cited from earlier work
[2] = in vivo; cited from earlier work
[3] = capsules with granulate formulation, surfactants, cyclodextrin, Avicel PH 101 and Primojel (U.S. Pat. No. 5,646,131, example 4); cited from earlier work
[4] = Drug dissolution test of extruded granules or pellets, paddles at 100 rpm, demineralized water, room temperature; format: physicochemical; details: paddles 100 rpm
Procedure: The extruded granules were collected, sieved and further analysed for drug dissolution (data shown in FIGS. 1 and 2, formulations B and D). The dissolution test was performed at room temperature by using paddles rotating at 100 rpm, the dissolution medium being demineralized water.

## CC/C(=C(/CC)c1ccc(O)cc1)c1ccc(O)cc1 [diethylstilbestrol]
[1]
  solubility in water (in words): virtually insoluble in water

## CS(=O)(=O)c1ccc([C@@H](O)[C@@H](CF)NC(=O)C(Cl)Cl)cc1 [florfenicol, D-(threo)-1-p-methylsulfonyl phenyl-2-dichloroacetamido-3-fluoro-l-propanol]
[2]
  oral bioavailability: good oral bioavailability

## CC(C)(C)c1ccc(C(O)CCCN2CCC(C(O)(c3ccccc3)c3ccccc3)CC2)cc1 (stereo not drawn) [terfenadine]
[1]
  water-solubility: less than 0.01 mg/ml
[3]
  drug release within 45 minutes: 90%

## Cn1c(=O)c2[nH]cnc2n(C)c1=O [theophylline]
[1]
  water-solubility: 8000 µg/mL

## COc1cc(Cc2cnc(N)nc2N)cc(OC)c1OC [trimethoprim, 2,4-diamino-5-(3,4,5-trimethoxy-benzyl)pyrimidine]
[4]
  drug release after 30 minutes: 38%
